Assay results taken from patent US20250115594A1, “ANTIBACTERIAL AGENTS: SOLUBLE SALTS AND AQUEOUS FORMULATIONS OF PYRONINS” (priority 2018, published 2025).
Converted amounts (≈) assume the structure as drawn.

Key:
[1] = test system: Staphylococcus aureus ATCC 12600; assay: Inhibition of bacterial growth, spiral gradient endpoint assay, S. aureus; format: cell-based; details: ATCC12600, read-out: in vitro antibacterial activity S. aureus ATCC12600 MIC
Source text: (§1) Minimum inhibitory concentrations (MICs) for Staphylococcus aureus ATCC 12600 and Escherichia coli D21f2tolC were quantified using spiral gradient endpoint assays, essentially as described [Wallace, A. and Corkill, J. (1989) Application of the spiral plating method to study antimicrobial action. J. Microbiol. Meths. 10, 303-310; Paton, J., Holt, A., and Bywater, M. (1990) Measurement of MICs of antibacterial agents by spiral gradient endpoint compared with conventional dilution methods. Int. J. Exp. Clin. Chemother. 3, 31-38; Schalkowsky S. (1994) Measures of susceptibility from a spiral gradient of drug concentrations. Adv. Exp. Med. Biol. 349, 107-120]. Assays employed exponential-gradient plates containing 150 mm×4 mm Mueller-Hinton II cation-adjusted agar and 0.4-100 μg/ml of test salt. Plates were prepared using an Autoplate 4000 spiral plater (Spiral Biotech, Inc.). Saturated overnight cultures were swabbed radially onto plates, and plates were incubated for 16 h at 37° C. For each culture, the streak length was measured using a clear plastic template (Spiral Biotech, Inc.), the test-salt concentration at the streak endpoint was calculated using the program SGE (Spiral Biotech, Inc.), and the MIC was defined as the calculated test-salt concentration at the streak endpoint.

[2] = target: E. coli RNA polymerase σ70 holoenzyme (Escherichia coli (strain K12), UniProt P0A8T7+P0A8V2); assay: Fluorescence-detected assay of inhibition of Escherichia coli RNA polymerase; format: biochemical; details: read-out: RNAP-inhibitory activity E. coli RNAP IC50
Description: (§2) Fluorescence-detected RNA polymerase assays with E. coli RNA polymerase were performed by a modification of the procedure of Kuhlman et al., 2004 [Kuhlman, P., Duff, H. & Galant, A. (2004) A fluorescence-based assay for multisubunit DNA-dependent RNA polymerases. Anal. Biochem. 324, 183-190]. Reaction mixtures contained (20 μl): 0-100 nM test salt, 75 nM E. coli RNA polymerase σ^70 holoenzyme, 20 nM 384 bp DNA fragment containing the bacteriophage T4 N25 promoter, 100 μM ATP, 100 μM GTP, 100 μM UTP, 100 μM CTP, 50 mM Tris-HCl, pH 8.0, 100 mM KCl, 10 mM MgCl2, 1 mM DTT, 10 μg/ml bovine serum albumin, and 5.5% glycerol. Reaction components other than DNA and NTPs were pre-incubated for 10 min at 37° C. Reactions were carried out by addition of DNA and incubation for 5 min at 37° C., followed by addition of NTPs and incubation for 60 min at 37° C. DNA was removed by addition of 1 μl 5 mM CaCl2 and 2 U DNaseI (Ambion, Inc.), followed by incubation for 90 min at 37° C. RNA was quantified by addition of 100 μl RiboGreen RNA Quantitation Reagent (Invitrogen, Inc.; 1:500 dilution in Tris-HCl, pH 8.0, 1 mM EDTA), followed by incubation for 10 min at 25° C., followed by measurement of fluorescence intensity [excitation wavelength=485 nm and emission wavelength=535 nm; QuantaMaster QM1 spectrofluorometer (PTI, Inc.)]. IC50 is defined as the concentration of inhibitor resulting in 50% inhibition of RNA polymerase activity.

S. aureus RNA polymerase = S. aureus RNA polymerase (Staphylococcus aureus (strain NCTC 8325 / PS 47), UniProt P47768+Q2G0N5); assay: Fluorescence-detected assay of inhibition of Staphylococcus aureus RNA polymerase; format: biochemical; details: read-out: RNAP-inhibitory activity S. aureus RNAP IC50
Description: as §2
(§3) Fluorescence-detected RNA polymerase assays with S. aureus RNA polymerase were performed as in Example 17.1, using reaction mixtures containing (20 μl): 0-100 nM test salt, 75 nM S. aureus RNA polymerase core enzyme, 300 nM S. aureus σ^A, 20 nM 384 bp DNA fragment containing the bacteriophage T4 N25 promoter, 100 μM ATP, 100 μM GTP, 100 μM UTP, 100 μM CTP, 40 mM Tris-HCl, pH 8.0, 80 mM NaCl, 5 mM MgCl2, 2.5 mM DTT, and 12.7% glycerol. IC50 is defined as the concentration of inhibitor resulting in 50% inhibition of RNA polymerase activity.

[3] = target: M. tuberculosis RNA polymerase (Mycobacterium tuberculosis (strain ATCC 25618 / H37Rv), UniProt P9WGY7+P9WGY9); assay: Fluorescence-detected assay of inhibition of Mycobacterium tuberculosis RNA polymerase; format: biochemical; details: read-out: RNAP-inhibitory activity M. tuberculosis RNAP IC50
Description: as §2
as §3, with “M. tuberculosis” for “S. aureus”

[4] = test system: Escherichia coli D21f2tolC; assay: Inhibition of bacterial growth, spiral gradient endpoint assay, E. coli; format: cell-based; details: read-out: in vitro antibacterial activity E. coli D21f2tolC MIC
Source text: as §1

physchem [5] = format: physicochemical; details: for solubility: thermodynamic from solid
Description: Starting with 0.5-5 mg test compound in a glass vial at room temperature, successive cycles of addition of vehicle, vortexing 15 s, and inspection were performed until all test compound dissolved. Vehicles were: 0.01 M sodium phosphate (pH 7.4); 5% dextrose in 0.01 M sodium phosphate (pH 7.4); and 0.5% carboxymethylcellulose (CMC)/0.5% Tween-80 (pH 8.4).

physchem [6] = format: physicochemical; details: for solubility at 2 h: 37 °C, pH 7.4, aqueous buffer, kinetic from dmso stock
Description: Serial dilutions of test articles were prepared in dimethyl sulfoxide at 100× the final concentration. Test article solutions and blanks were diluted 100× into phosphate-buffered saline (PBS; 0.01 M sodium phosphate, pH 7.4, 137 mM NaCl, and 3 mM KCl) in a 96-well plate and mixed. After 2 h at 37° C., the presence of precipitate was detected by turbidity (absorbance at 540 nm). An absorbance value of greater than “mean+3xSD of the blank” (after subtracting background) was considered an indication of turbidity. The solubility limit was reported as the highest tested concentration with no evidence of turbidity.

[7] = test system: Mycobacterium tuberculosis H37Rv; assay: Inhibition of bacterial growth, microplate Alamar Blue assay, M. tuberculosis; format: cell-based; details: read-out: in vitro antibacterial activity M. tuberculosis H37Rv MIC
[8] = pH 8.4, aqueous with cosolvent or surfactant or cyclodextrin

Row | Structure (SMILES) | MIC [1] | IC50 [2] | IC50 (S. aureus RNA polymerase) | IC50 [3] | MIC [4] | solubility (physchem [5]; pH 7.4, aqueous buffer) | solubility (physchem [5]; pH 7.4, saline or isotonic) | solubility (physchem [5]; [8]) | solubility at 2 h (physchem [6]) | MIC [7] | concentration at which it can be formulated (physchem [5]) | times more soluble than the corresponding free acid (Example 8) (physchem [6])
1 | [2H]C([2H])([2H])OC(=O)N/C=C/CCCc1cc(O)c(C(=O)/C(C)=C/c2cnc(Oc3ccc(F)cc3)s2)c(=O)o1 [Example 8] | 0.3 µg/mL (≈ 0.58 µM) | 4 nM | 60 nM | 20 nM | 0.06 µg/mL (≈ 0.116 µM) | < 100 µg/mL | < 100 µg/mL | < 100 µg/mL | 100 µg/mL (≈ 193 µM) | 0.8 µg/mL (≈ 1.55 µM) | – | –
2 | [2H]C([2H])([2H])OC(=O)N/C=C/CCCc1cc([O-])c(C(=O)/C(C)=C/c2cnc(Oc3ccc(F)cc3)s2)c(=O)o1.[Na+] [Example 9] | 0.4 µg/mL | – | 30 nM | 30 nM | 0.04 µg/mL | 10000 µg/mL | 5000 µg/mL | 20000 µg/mL | ≥ 5000 µg/mL | 0.4 µg/mL | ≥ 10000 µg/mL | ≥ 50 times
3 | [2H]C([2H])([2H])OC(=O)N/C=C/CCCc1cc([O-])c(C(=O)/C(C)=C/c2cnc(Oc3ccc(F)cc3)s2)c(=O)o1.[K+] [Example 10] | 0.2 µg/mL | 6 nM | – | – | 0.03 µg/mL | – | – | – | – | – | – | –
4 | [2H]C([2H])([2H])OC(=O)N/C=C/CCCc1cc(O)c(C(=O)/C(C)=C/c2cnc(Oc3ccc(F)c(Cl)c3)s2)c(=O)o1 [Example 11] | 0.2 µg/mL (≈ 0.362 µM) | 3 nM | 1 nM | 30 nM | 0.02 µg/mL (≈ 0.0362 µM) | – | – | – | – | 0.8 µg/mL (≈ 1.45 µM) | – | –
5 | [2H]C([2H])([2H])OC(=O)N/C=C/CCCc1cc([O-])c(C(=O)/C(C)=C/c2cnc(Oc3ccc(F)c(Cl)c3)s2)c(=O)o1.[Na+] [Example 12] | 0.2 µg/mL | – | 3 nM | 30 nM | 0.03 µg/mL | – | – | – | – | 0.8 µg/mL | – | –
6 | [2H]C([2H])([2H])OC(=O)N/C=C/CCCc1cc(O)c(C(=O)/C(C)=C/c2cnc(Oc3ccc(-c4ccccc4)cc3)s2)c(=O)o1 [Example 13] | > 8 µg/mL | 20 nM | 10 nM | > 6000 nM | 0.03 µg/mL (≈ 0.0521 µM) | – | – | – | – | > 50 µg/mL | – | –
7 | [2H]C([2H])([2H])OC(=O)N/C=C/CCCc1cc([O-])c(C(=O)/C(C)=C/c2cnc(Oc3ccc(-c4ccccc4)cc3)s2)c(=O)o1.[Na+] [Example 14] | > 8 µg/mL | 50 nM | 30 nM | > 6000 nM | 0.03 µg/mL | – | – | – | – | > 50 µg/mL | – | –
